Data reported in ChEMBL document CHEMBL1201862, “PubChem BioAssay data set” (2004).
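Test compounds were applied to cells in 96-well plates for 48 hours at 5 doses. Here, GI50 denotes the concentration required for 50% inhibition of growth.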 Active and inactive are the calls of the source. No stated cut-off is given here; in the data, active = GI50 up to about 1.1 µM and inactive = higher.

Columns and labels:
Experiment in all cases: NCI anticancer screen, dose series, 48 h
786-0 = tested on: 786-0
CAKI-1 = tested on: CAKI-1
HCT-15 = tested on: HCT-15
HL-60 = tested on: HL-60
HOP-92 = tested on: HOP-92
IGROV-1 = tested on: IGROV-1
K562 = tested on: K562
KM12 = tested on: KM12
LOX IMVI = tested on: LOX IMVI
MDA-MB-231 = tested on: MDA-MB-231
MDA-N = tested on: MDA-N
NCI-H226 = tested on: NCI-H226
OVCAR-3 = tested on: OVCAR-3
OVCAR-4 = tested on: OVCAR-4
OVCAR-8 = tested on: OVCAR-8
SF-539 = tested on: SF-539
SK-MEL-2 = tested on: SK-MEL-2
DU-145 = tested on: DU-145
NCI/ADR-RES = tested on: NCI/ADR-RES
U-251 = tested on: U-251

Row | SMILES | GI50 (786-0) | GI50 (CAKI-1) | GI50 (HCT-15) | GI50 (HL-60) | GI50 (HOP-92) | GI50 (IGROV-1) | GI50 (K562) | GI50 (KM12) | GI50 (LOX IMVI) | GI50 (MDA-MB-231) | GI50 (MDA-N) | GI50 (NCI-H226) | GI50 (OVCAR-3) | GI50 (OVCAR-4) | GI50 (OVCAR-8) | GI50 (SF-539) | GI50 (SK-MEL-2) | GI50 (DU-145) | GI50 (NCI/ADR-RES) | GI50 (U-251)
1 | CCOP(=O)(OCC)C1C(CO)OC(n2ccc(=O)[nH]c2=O)C1O (stereo not given) | > 100 µM (inactive) | > 100 µM (inactive) | > 100 µM | > 100 µM (inactive) | > 100 µM (inactive) | > 100 µM (inactive) | > 100 µM (inactive) | > 100 µM (inactive) | > 100 µM (inactive) | > 100 µM (inactive) | > 100 µM (inactive) | > 100 µM (inactive) | > 100 µM (inactive) | 74.5 µM (inactive) | > 100 µM (inactive) | > 100 µM (inactive) | > 100 µM (inactive) |  |  | 
2 | Cc1ccc(/N=N/c2c(O)c(C(=O)Nc3ccccc3)cc3ccccc23)c([N+](=O)[O-])c1 | > 100 µM (inactive) | > 100 µM (inactive) | > 100 µM |  | > 100 µM (inactive) | > 100 µM (inactive) | > 100 µM (inactive) | > 100 µM (inactive) | > 100 µM (inactive) | > 100 µM (inactive) | > 100 µM (inactive) |  | > 100 µM (inactive) | > 100 µM (inactive) | > 100 µM (inactive) |  | > 100 µM (inactive) | > 100 µM (inactive) | > 100 µM (inactive) | > 100 µM (inactive)
3 | c1ccc2c3c(ccc2c1)CSCc1ccc2ccccc2c1-3 | > 100 µM (inactive) | > 100 µM (inactive) | > 100 µM | > 10 µM (inactive) | 22.2 µM (inactive) | > 100 µM (inactive) | > 100 µM (inactive) | > 100 µM (inactive) | > 100 µM (inactive) | > 100 µM (inactive) | > 100 µM (inactive) |  | > 100 µM (inactive) | 26.8 µM (inactive) | > 100 µM (inactive) | 54.1 µM (inactive) | > 100 µM (inactive) | > 100 µM (inactive) | > 100 µM (inactive) | > 100 µM (inactive)
4 | BrCC[N+]12CCCN1CCC2 | 9.06 µM (inactive) | 1.03 µM (active) | 12.3 µM | 2.9 µM (inactive) | 5.22 µM (inactive) | 22 µM (inactive) | 2.9 µM (inactive) | > 67.3 µM (inactive) | 11.5 µM (inactive) | 17.5 µM (inactive) | 16.1 µM (inactive) | 33.2 µM (inactive) | 13.9 µM (inactive) | 4.23 µM (inactive) | 19 µM (inactive) | 15.2 µM (inactive) | 20.5 µM (inactive) | 45.3 µM (inactive) |  | 16.5 µM (inactive)
5 | COc1ccc(OCc2ccc3nc(-c4ccccc4)c(Cl)nc3c2)cc1 | 10.6 µM (inactive) | 22.3 µM (inactive) | 50.7 µM | 12.3 µM (inactive) | 14.5 µM (inactive) | 38 µM (inactive) | 0.0889 µM (active) | > 100 µM (inactive) | 84.5 µM (inactive) | 11.7 µM (inactive) | 52.7 µM (inactive) |  | 84.3 µM (inactive) | 19.4 µM (inactive) | 44.7 µM (inactive) | 12.9 µM (inactive) | 26.9 µM (inactive) | > 100 µM (inactive) | 40.3 µM (inactive) | 12.3 µM (inactive)
6 | OC1CSCCSCCCSCCSC1 | > 100 µM (inactive) | > 100 µM (inactive) | > 100 µM | 50.2 µM (inactive) | > 100 µM (inactive) | > 100 µM (inactive) | > 100 µM (inactive) |  | > 100 µM (inactive) | > 100 µM (inactive) | > 100 µM (inactive) | > 100 µM (inactive) | > 100 µM (inactive) | > 100 µM (inactive) | > 100 µM (inactive) | > 100 µM (inactive) | > 100 µM (inactive) | > 100 µM (inactive) |  | > 100 µM (inactive)
7 | COc1cccc(C2SC(=N)Nc3c2c(C)nn3C(=O)Cc2ccccc2)c1 (stereo not given) | > 100 µM (inactive) | > 100 µM (inactive) | > 100 µM | > 100 µM (inactive) |  | > 100 µM (inactive) | > 100 µM (inactive) | > 100 µM (inactive) | > 100 µM (inactive) | > 100 µM (inactive) | > 100 µM (inactive) | > 100 µM (inactive) |  |  | > 100 µM (inactive) | > 100 µM (inactive) |  | > 100 µM (inactive) |  | 
8 | O=c1cc(N2CCOCC2)n2c(ccc3ccccc32)n1 | > 100 µM (inactive) | > 100 µM (inactive) | > 100 µM | > 100 µM (inactive) | > 100 µM (inactive) | > 100 µM (inactive) | > 100 µM (inactive) | > 100 µM (inactive) | > 100 µM (inactive) | > 100 µM (inactive) | 31.7 µM (inactive) | > 100 µM (inactive) | > 100 µM (inactive) |  | > 100 µM (inactive) | > 100 µM (inactive) | > 100 µM (inactive) |  | > 100 µM (inactive) | > 100 µM (inactive)
9 | O=C1NC2CCCCC2NC1=C(C(=O)c1ccccc1)C(=O)c1ccccc1 (stereo not given) | > 100 µM (inactive) | 36.4 µM (inactive) | 23.3 µM | 46.7 µM (inactive) |  | 26.3 µM (inactive) | 35.5 µM (inactive) | 42.7 µM (inactive) | 38.1 µM (inactive) | 24.3 µM (inactive) | 70.3 µM (inactive) | 12.5 µM (inactive) | 67.5 µM (inactive) |  | 25.5 µM (inactive) | 43.2 µM (inactive) | 33.6 µM (inactive) | > 100 µM (inactive) | 29.2 µM (inactive) | 26.6 µM (inactive)
10 | O=C1C(=CNc2ccc([N+](=O)[O-])cc2)C(=O)N(c2ccccc2)C(=O)N1c1ccccc1 | > 100 µM (inactive) | > 100 µM (inactive) | 76 µM |  | > 100 µM (inactive) | > 100 µM (inactive) | > 100 µM (inactive) | 36.7 µM (inactive) | > 100 µM (inactive) | > 100 µM (inactive) | > 100 µM (inactive) | > 100 µM (inactive) | 56.6 µM (inactive) | > 100 µM (inactive) | > 100 µM (inactive) |  | 85.7 µM (inactive) |  | > 100 µM (inactive) | > 100 µM (inactive)
11 | CN(CCNC(=O)c1nn(-c2ccc(Cl)cc2Cl)c2c1Cc1ccccc1-2)CCNC(=O)c1nn(-c2ccc(Cl)cc2Cl)c2c1Cc1ccccc1-2 | 2.16 µM (inactive) | 4.94 µM (inactive) | 2.29 µM | 1.55 µM (inactive) | 1.99 µM (inactive) | 4.53 µM (inactive) | 1.57 µM (inactive) | 3.49 µM (inactive) | 2.07 µM (inactive) | 2.66 µM (inactive) | 2.25 µM (inactive) |  | 3.55 µM (inactive) | 2.1 µM (inactive) | 2.07 µM (inactive) | 1.85 µM (inactive) | 2.05 µM (inactive) | 4.69 µM (inactive) | 3.39 µM (inactive) | 2.49 µM (inactive)
